Data reported in ChEMBL document CHEMBL1129108, “On the bioactive conformation of the gaba uptake inhibitor SK&F 89976-A” (Bioorg Med Chem Lett, 1996).

Legend:
Format in all cases: functional
[1] = target: T1, Sodium- and chloride-dependent betaine transporter (Homo sapiens, UniProt P48065); experiment: Compound was tested for its ability to inhibit uptake of [3H]- GABA by cloned human BGT-1 transporter
T1 sequence (P48065 whole entry): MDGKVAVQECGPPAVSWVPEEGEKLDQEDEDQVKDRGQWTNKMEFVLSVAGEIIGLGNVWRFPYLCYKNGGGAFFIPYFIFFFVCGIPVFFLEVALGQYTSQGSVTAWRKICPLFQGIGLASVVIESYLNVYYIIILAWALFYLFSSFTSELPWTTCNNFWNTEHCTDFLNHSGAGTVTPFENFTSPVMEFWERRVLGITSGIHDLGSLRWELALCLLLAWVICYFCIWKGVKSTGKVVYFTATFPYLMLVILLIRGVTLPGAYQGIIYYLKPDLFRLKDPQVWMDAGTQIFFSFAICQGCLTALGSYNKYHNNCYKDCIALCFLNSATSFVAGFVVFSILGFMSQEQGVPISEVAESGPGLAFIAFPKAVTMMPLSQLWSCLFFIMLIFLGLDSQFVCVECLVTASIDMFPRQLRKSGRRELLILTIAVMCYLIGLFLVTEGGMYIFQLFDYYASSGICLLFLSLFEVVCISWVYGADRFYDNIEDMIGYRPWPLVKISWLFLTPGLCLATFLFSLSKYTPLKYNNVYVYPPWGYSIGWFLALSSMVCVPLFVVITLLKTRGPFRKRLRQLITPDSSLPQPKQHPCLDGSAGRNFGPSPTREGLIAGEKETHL

[2] = target: T2, Sodium- and chloride-dependent GABA transporter 3 (Homo sapiens, UniProt P48066); experiment: Compound was tested for its ability to inhibit uptake of [3H]- GABA by cloned human GAT-3 transporter
T2 sequence (P48066 whole entry): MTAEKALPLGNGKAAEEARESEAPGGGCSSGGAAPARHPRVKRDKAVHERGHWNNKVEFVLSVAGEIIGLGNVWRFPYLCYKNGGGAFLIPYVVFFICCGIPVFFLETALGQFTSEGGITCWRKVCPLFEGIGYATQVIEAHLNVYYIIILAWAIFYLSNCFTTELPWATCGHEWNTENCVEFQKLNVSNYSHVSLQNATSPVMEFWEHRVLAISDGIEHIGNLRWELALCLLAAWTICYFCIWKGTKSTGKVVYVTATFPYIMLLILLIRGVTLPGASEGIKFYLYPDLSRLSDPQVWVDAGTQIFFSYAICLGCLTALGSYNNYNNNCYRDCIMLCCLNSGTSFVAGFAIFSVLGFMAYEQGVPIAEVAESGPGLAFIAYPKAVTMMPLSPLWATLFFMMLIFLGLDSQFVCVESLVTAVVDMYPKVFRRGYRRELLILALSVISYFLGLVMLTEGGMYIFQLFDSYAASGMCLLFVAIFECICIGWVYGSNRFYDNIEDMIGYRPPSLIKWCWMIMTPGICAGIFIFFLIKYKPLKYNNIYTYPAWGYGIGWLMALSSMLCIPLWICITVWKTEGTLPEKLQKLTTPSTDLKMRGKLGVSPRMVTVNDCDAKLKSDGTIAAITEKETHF

[3] = target: Sodium- and chloride-dependent GABA transporter 1 (Homo sapiens, UniProt P30531); experiment: Compound was tested for its ability to inhibit uptake of [3H]- GABA by cloned human GAT-1 transporter
[4] = target: T3, Sodium- and chloride-dependent GABA transporter 2 (Rattus norvegicus, UniProt P31646); experiment: Compound was tested for its ability to inhibit uptake of [3H]- GABA by cloned rat GAT-2 transporte
T3 sequence (P31646 whole entry): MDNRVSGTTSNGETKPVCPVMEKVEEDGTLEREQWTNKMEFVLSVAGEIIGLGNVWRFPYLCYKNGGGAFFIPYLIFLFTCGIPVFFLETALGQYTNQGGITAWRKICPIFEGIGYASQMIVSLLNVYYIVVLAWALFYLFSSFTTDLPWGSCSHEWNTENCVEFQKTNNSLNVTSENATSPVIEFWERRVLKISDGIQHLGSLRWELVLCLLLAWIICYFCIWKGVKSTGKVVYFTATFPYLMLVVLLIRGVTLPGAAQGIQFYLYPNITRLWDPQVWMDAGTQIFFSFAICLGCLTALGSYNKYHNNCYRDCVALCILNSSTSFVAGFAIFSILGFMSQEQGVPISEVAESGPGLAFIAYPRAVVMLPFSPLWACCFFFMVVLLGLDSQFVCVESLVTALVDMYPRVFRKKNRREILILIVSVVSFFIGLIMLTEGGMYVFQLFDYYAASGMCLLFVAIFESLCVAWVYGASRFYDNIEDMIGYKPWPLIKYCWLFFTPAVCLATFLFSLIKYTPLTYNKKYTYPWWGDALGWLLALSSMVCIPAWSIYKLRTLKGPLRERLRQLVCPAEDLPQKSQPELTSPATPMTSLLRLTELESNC

Sodium- and chloride-dependent GABA transporter 1, sequence (P30531 whole entry): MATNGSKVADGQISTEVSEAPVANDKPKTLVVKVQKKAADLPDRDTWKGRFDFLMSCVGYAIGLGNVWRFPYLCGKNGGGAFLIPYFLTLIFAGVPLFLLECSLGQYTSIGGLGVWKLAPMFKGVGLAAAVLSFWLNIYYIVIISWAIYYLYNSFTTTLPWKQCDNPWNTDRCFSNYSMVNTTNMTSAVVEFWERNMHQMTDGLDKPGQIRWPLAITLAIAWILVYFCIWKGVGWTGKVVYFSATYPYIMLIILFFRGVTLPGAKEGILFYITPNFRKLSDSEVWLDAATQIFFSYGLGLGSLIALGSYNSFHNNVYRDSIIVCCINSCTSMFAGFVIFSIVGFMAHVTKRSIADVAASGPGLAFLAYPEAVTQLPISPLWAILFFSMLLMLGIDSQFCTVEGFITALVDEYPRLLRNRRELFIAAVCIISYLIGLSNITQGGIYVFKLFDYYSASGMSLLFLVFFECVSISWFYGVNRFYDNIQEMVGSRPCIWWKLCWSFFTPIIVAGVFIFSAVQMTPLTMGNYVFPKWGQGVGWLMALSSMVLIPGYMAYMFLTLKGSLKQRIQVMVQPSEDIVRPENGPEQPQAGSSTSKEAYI

`O=C(O)[C@H]1CCC2CC(=C(c3ccccc3)c3ccccc3)CCN2C1` (stereo partly specified) gave an IC50 [1] of 335 µM, an IC50 [2] of 0.876 mM and an IC50 [3] of 809 µM. The IC50 [4] was 757 µM.

Compound `O=C(O)[C@@H]1CCC2C[C@H](C(c3ccccc3)c3ccccc3)CCN2C1` (stereo partly specified) has an IC50 [1] of 2900 µM, an IC50 [2] of 2.04 mM and an IC50 [3] of 632 µM. For the same compound, the IC50 [4] was 477 µM.

`O=C(O)[C@H]1CCC2C[C@H](C(c3ccccc3)c3ccccc3)CCN2C1` (stereo partly specified) showed an IC50 [1] of 809 µM, an IC50 [2] of 0.782 mM and an IC50 [3] of 270 µM. It also gave an IC50 [4] of 669 µM.

With `O=C(O)[C@@H]1CCC2CC(=C(c3ccccc3)c3ccccc3)CCN2C1` (stereo partly specified) the IC50 [1] was 436 µM, the IC50 [2] was 3.23 mM and the IC50 [3] was 270 µM. The IC50 [4] was 810 µM.
